{"source": "paper PMC12242654", "about": "“Design, Synthesis, and In Vitro Evaluation of the Leishmanicidal Activity of New Aromatic Symmetrical 1,4-Disubstituted 1,2,3-Bistriazoles” (ACS Omega, 2025)", "key": {"[1]": {"system": "promastigote forms of L. amazonensis", "experiment": "Leishmanicidal activity against promastigote forms of L. amazonensis (resazurin)", "type": "cell-based, Leishmania amazonensis", "settings": "L. amazonensis promastigotes, 72 h, read-out: IC50 ± SD promastigote", "procedure": "Promastigotes of L. amazonensis (MHOM/BR/71973/M2269) were grown on 24-well plates in Schneider’s Drosophila medium (Sigma, USA) supplemented with 10.0% (v/v) heat-inactivated fetal bovine serum and 1.0% penicillin (10000 UI mL^–1)/streptomycin (10.0 mg mL^–1) (Sigma, USA). Cells were harvested in the log phase, suspended in a fresh medium, counted in Neubauer’s chamber, and adjusted to a concentration of 1 × 10^6 cells mL^–1 using 24-well plates. The compounds were added to promastigote cultures (1 × 10^6 cells mL^–1) in the range of 0.10–40.00 μg mL^–1, solubilized in dimethyl sulfoxide (DMSO) (0.6%, v/v in all wells), and incubated at 25 °C. After 72 h of incubation, resazurin was used to detect cellular metabolic activity for the determination of 50.0% inhibitory growth concentration (IC50-promastigote). All tests were performed in triplicate at three different times, and amphotericin B (Sigma) was used as the reference drug."}, "[2]": {"experiment": "Murine cytotoxicity by MTT method", "type": "cell-based", "settings": "mouse; murine peritoneal macrophages, MTT; read-out: murine macrophage CC50 ± SD", "procedure": "(§1) Murine cytotoxicity was assessed by the 3-(4,5-dimethylthiazol-2-yl)-2,5-diphenyltetrazolium bromide (MTT) method using murine peritoneal macrophages to determine the CC50. For this purpose, murine peritoneal macrophages were maintained in RPMI 1640 medium at 37 °C and 5% CO2, arranged in 96-well plates at a ratio of […], where the compounds to be evaluated were added at concentrations of 500, 250, 125, 62.5, 31.25, 15.625, 7.8125, and 3.90 μg mL^–1 and incubated for 24, 48, and 72 h. After incubation, 10 μL of MTT (at a concentration of 5 mg mL^–1) was added per well, with a further 4 h incubation. The cells were lysed with dimethyl sulfoxide (DMSO) and evaluated in a Shimadzu UV/vis spectrophotometer (double beam, model 2550) at 570 nm to determine the CC50 compared to the control without the addition of compounds or drugs. , The optical density obtained was then converted to the percentage of inhibition using eq so that the CC50 could then be determined by regression analysis of the data. %inhibition=[(DOcontrol−DOcompound)/DOcontrol]×100 1\n(§2) The percentage of viable cells was calculated considering the cell culture control (medium + cells + DMSO = 0.6% v/v)."}, "[3]": {"experiment": "Cytotoxicity on human fibroblast culture (sulforodamine B (SRB) test)", "type": "cell-based", "settings": "read-out: human fibroblasts CC50 ± SD"}, "[4]": {"system": "amastigote forms of L. amazonensis", "experiment": "Leishmanicidal activity against intracellular amastigote forms of L. amazonensis in murine peritoneal macrophages", "type": "cell-based", "settings": "Leishmania amazonensis, Peritoneal macrophage; intracellular amastigotes in murine peritoneal macrophages, 72 h, Giemsa; read-out: IC50 ± SD amastigote", "procedure": "To evaluate the leishmanicidal activity in amastigotes, murine peritoneal macrophages were used and maintained in RPMI-1640 medium at 37 °C and 5% CO2 in 24-well plates. After 24 h, the nonadherent macrophages were removed, and these cells were infected with Leishmania (L.) amazonensis promastigotes in the stationary phase of the proliferation curve at a ratio of 10:1. The day after infection, the noninternalized parasites were removed, and the compounds to be evaluated were added at concentrations of 40, 10, 5, and 0.1 μg mL^–1 and incubated for 72 h at 37 °C and 5% CO2; they were then fixed in methanol and stained with 10% Giemsa (MERCK) for subsequent analysis by light microscopy. To assess the effect of the compounds, the number of amastigotes/macrophages and the number of infected macrophages were evaluated. The percentage of infected cells was considered to illustrate the results since these are expressed as CI50-amastigote. ,"}, "[5]": {"system": "murine peritoneal macrophages", "experiment": "Murine cytotoxicity by MTT method", "type": "cell-based", "procedure": "as §1, §2"}}, "note": "Where two headings read alike, the source gives them in different places."}
{"compound": "O=[N+]([O-])c1ccc(-c2cn(CC(O)Cn3cc(-c4ccc([N+](=O)[O-])cc4)nn3)nn2)cc1", "note": "[8b, 1,3-Bis(4-(4-nitrophenyl)-1H-1,2,3-triazol-1-yl)propan-2-ol]", "values": [{"measurement": "IC50", "setting": "[1]; Leishmania amazonensis", "value": "48.4 ± 1.3", "unit": "µM"}, {"measurement": "CC50", "setting": "[2]", "value": "305 ± 7.84", "unit": "µM"}]}
{"compound": "Cc1ccc(-c2cn(CC(O)Cn3cc(-c4ccc(C)cc4)nn3)nn2)cc1", "note": "[8c, 1,3-Bis(4-(p-tolyl)-1H-1,2,3-triazol-1-yl)propan-2-ol]", "values": [{"measurement": "IC50", "setting": "[1]; Leishmania amazonensis", "value": "116 ± 2.61", "unit": "µM"}, {"measurement": "CC50", "setting": "[2]", "value": "282.2 ± 1.65", "unit": "µM"}]}
{"compound": "OC(Cn1cc(C(=NNc2nc3ccccc3s2)c2ccccc2)nn1)Cn1cc(C(=NNc2nc3ccccc3s2)c2ccccc2)nn1", "note": "(centres unmarked) [12c, 1,3-Bis(4-((2-(benzo[d]thiazol-2-yl)hydrazineylidene)(phenyl)methyl)-1H-1,2,3-triazol-1-yl)propan-2-ol]", "values": [{"measurement": "IC50", "setting": "[1]; Leishmania amazonensis", "value": "19.2 ± 1.4", "unit": "µM"}, {"measurement": "CC50", "setting": "[2]", "value": "51.3 ± 8.57", "unit": "µM"}]}
{"compound": "C[C@@H]1[C@H](O)[C@@H](C)/C=C/C=C/C=C/C=C/C=C/C=C/C=C/[C@H](O[C@@H]2O[C@H](C)[C@@H](O)[C@H](N)[C@@H]2O)C[C@@H]2O[C@](O)(C[C@@H](O)C[C@@H](O)[C@H](O)CC[C@@H](O)C[C@@H](O)CC(=O)O[C@H]1C)C[C@H](O)[C@H]2C(=O)O", "note": "[amph B, amphotericin B, reference compound]", "values": [{"measurement": "IC50", "setting": "[1]; Leishmania amazonensis", "value": "1.4 ± 0.04", "unit": "µM"}, {"measurement": "CC50", "setting": "[3]", "value": "22.95 ± 0.1", "unit": "µM"}, {"measurement": "IC50", "setting": "[4]", "value": "1.9 ± 0.07", "unit": "µM"}, {"measurement": "CC50", "setting": "[2]", "value": "27.1 ± 3.19", "unit": "µM"}]}
{"compound": "OC(c1ccccc1)c1cn(Cc2ccccc2)nn1", "note": "(centres unmarked) [compound 4]", "values": [{"measurement": "IC50", "setting": "[1]; Leishmania amazonensis", "value": "42.8 ± 2.66", "unit": "µM"}, {"measurement": "CC50", "setting": "[2]", "value": "322 ± 10.4", "unit": "µM"}]}
{"compound": "OC(Cn1cc(C(O)c2ccccc2)nn1)Cn1cc(C(O)c2ccccc2)nn1", "note": "(centres unmarked) [compound 9, ((2-Hydroxypropane-1,3-diyl)bis(1H-1,2,3-triazole-1,4-diyl))bis(phenylmethanol)]", "values": [{"measurement": "IC50", "setting": "[1]; Leishmania amazonensis", "value": "62.3 ± 3.29", "unit": "µM"}, {"measurement": "CC50", "setting": "[2]", "value": "144.3 ± 0.94", "unit": "µM"}]}
{"compound": "O=C(c1ccccc1)c1cn(CC(O)Cn2cc(C(=O)c3ccccc3)nn2)nn1", "note": "[compound 10, ((2-Hydroxypropane-1,3-diyl)bis(1H-1,2,3-triazole-1,4-diyl))bis(phenylmethanone)]", "values": [{"measurement": "IC50", "setting": "[1]; Leishmania amazonensis", "value": "44.1 ± 2.36", "unit": "µM"}, {"measurement": "CC50", "setting": "[3]", "value": "568.1 ± 2.58", "unit": "µM"}, {"measurement": "IC50", "setting": "[4]", "value": "68.4 ± 2.61", "unit": "µM"}, {"measurement": "CC50", "setting": "[2]", "value": "383.9 ± 3.21", "unit": "µM"}]}
{"compound": "N′,N‴-(((2-Hydroxypropane-1,3-diyl)bis(1H-1,2,3-triazole-1,4-diyl))bis(phenylmethaneylylidene))di(benzohydrazide) [12b]", "values": [{"measurement": "IC50", "setting": "[1]", "value": "34.46 ± 0.28", "unit": "µM"}, {"measurement": "CC50", "setting": "[5]", "value": "118 ± 17.1", "unit": "µM"}]}
